Where a name gives a salt, the structure may show the parent alone.

Series [1] in a line: Acute toxicity in po dosed mouse. The following applies: in vivo. It counts as organism-based.
In series [2] the test system is Rattus norvegicus. Briefly: Antianxiety activity in Long-Evans rat assessed as reduction in motor activity at 5 mg/kg, po after 2 hrs relative to vehicle-treated control. More on the design: scale not given: the % may be the effect or the level left. The class given is functional.
The species entered for series [3] is Rattus norvegicus. Briefly: animal or person. The class given is functional. The settings on record: Charles River, route oral.
Description: Antidiarrheal activity in Charles River rat assessed as inhibition of castor oil-induced diarrhea by measuring protected animals at 0.5 mg/kg, po administered 1 hr prior to castor oil challenge measured after 1 hr relative to vehicle-treated control
Series [4] has as its system Rattus norvegicus. The series is described as follows: Antihypertensive activity in spontaneously hypertensive rat model assessed as reduction in blood pressure at 10 mg/kg, po after 24 hrs. The class given is functional. More on the design: scale not given: the % may be the effect or the level left.
A further series deals with Canis familiaris. Briefly: Antianxiety activity in po dosed dog assessed as ataxia administered as single dose measured up to 24 hrs. The class given is functional. The settings on record: Canis lupus familiaris, read-out: MED.
Series [5] has as its system Rattus norvegicus. The series is described as follows: Antipsychotic activity in rat assessed as reduction of methamphetamine-induced hyperactivity at 5 mg/kg, po administered prior to methamphetamine challenge relative to vehicle-treated control. It counts as functional. Set-up: scale not given: the % may be the effect or the level left.
The test system of series [6] is Rattus norvegicus. Briefly: Antihypertensive activity in spontaneously hypertensive rat model assessed as reduction in blood pressure at 10 mg/kg, po after 3 hrs. The class given is functional. More on the design: scale not given: the % may be the effect or the level left.
Series [7] has as its system Mus musculus. The series is described as follows: Analgesic activity in mouse assessed as inhibition of acetic acid-induced writhing at 40 mg/kg, po administered 30 mins prior to acetic acid challenge measured after 5 mins for 20 mins. It counts as functional. (In general: In writhing tests, fewer writhes than in controls are read as antinociception.)
For another series, the system named is Rhesus monkey. Briefly: Antianxiety activity in po dosed rhesus monkey assessed as antiagressive behavior measured every hour post dosing. The class given is functional. The settings on record: Macaca mulatta, read-out: MED.
Series [8] deals with Mus musculus. Briefly: Antianxiety activity in albino BALB/cJ mouse assessed as reduction in footshock-induced fighting behavior at 10 mg/kg, po after 30 to 90 mins. More on the design: scale not given: the % may be the effect or the level left. The class given is functional.
Series [9] deals with Felis catus. Briefly: Hypnotic activity in cat assessed as increase in total sleep time at 0.5 mg/kg administered orally through diet measured for 12 hrs by EEG analysis. It counts as functional. The following applies: route oral.
Series [10] relates to Mus musculus. The series is described as follows: Analgesic activity in po dosed mouse assessed as inhibition of acetic acid-induced writhing administered 30 mins prior to acetic acid challenge measured after 5 mins for 20 mins. The class given is functional.
Series [11] concerns Felis catus. Briefly: Hypnotic activity in cat assessed as increase in non-REM sleep time at 0.5 mg/kg administered orally through diet measured for 12 hrs by EEG analysis. It counts as functional. The settings on record: route oral.
Series [12] concerns Mus musculus. Briefly: Anticonvulsant activity in po dosed mouse assessed as dose required to protect 80% of animal measured after 1 to 4 hrs by audiogenic seizure test. It counts as functional.
Series [13] concerns Rattus norvegicus. The series is described as follows: Antipsychotic activity in rat assessed as reduction of methamphetamine-induced hyperactivity at 2 mg/kg, po administered prior to methamphetamine challenge relative to vehicle-treated control. It counts as functional. More on the design: scale not given: the % may be the effect or the level left.
Series [14] has as its system Rattus norvegicus. The series is described as follows: Antipsychotic activity in rat assessed as reduction of methamphetamine-induced hyperactivity at 2.5 mg/kg, po administered prior to methamphetamine challenge relative to vehicle-treated control. It counts as functional. More on the design: scale not given: the % may be the effect or the level left.
The subject of series [15] is Rattus norvegicus. Briefly: Antihypertensive activity in spontaneously hypertensive rat model assessed as reduction in blood pressure at 3 mg/kg, po after 24 hrs. It counts as functional. More on the design: scale not given: the % may be the effect or the level left.
Series [16] has as its system Rattus norvegicus. The series is described as follows: Analgesic activity in po dosed Sprague-Dawley rat after 15 to 90 mins by tail flick test. The class given is functional. (In general: Thermal pain tests record how soon the animal reacts.)
Series [17] has as its system Mus musculus. The series is described as follows: Antianxiety activity in albino BALB/cJ mouse assessed as reduction in footshock-induced fighting behavior at 5 mg/kg, po after 30 to 90 mins. The class given is functional. More on the design: scale not given: the % may be the effect or the level left.
Series [18] has as its system Rattus norvegicus. Briefly: Antidiarrheal activity in Charles River rat assessed as inhibition of castor oil-induced diarrhea by measuring protected animals at 0.1 mg/kg, po administered 1 hr prior to castor oil challenge measured after 1 hr relative to vehicle-treated control. The class given is functional.
Series [19] concerns Rattus norvegicus. Briefly: Antihypertensive activity in spontaneously hypertensive rat model assessed as reduction in blood pressure at 0.3 mg/kg, po after 24 hrs. Set-up: scale not given: the % may be the effect or the level left. It counts as functional.
For series [20], the system named is Rattus norvegicus. Briefly: Antidiarrheal activity in Charles River rat assessed as inhibition of castor oil-induced diarrhea by measuring protected animals at 0.2 mg/kg, po administered 1 hr prior to castor oil challenge measured after 1 hr relative to vehicle-treated control. It counts as functional.
Series [21] relates to Rattus norvegicus. Briefly: Antihypertensive activity in spontaneously hypertensive rat model assessed as reduction in blood pressure at 0.3 mg/kg, po after 3 hrs. The class given is functional. More on the design: scale not given: the % may be the effect or the level left.
The test system of series [22] is Rattus norvegicus. The series is described as follows: Antihypertensive activity in spontaneously hypertensive rat model assessed as reduction in blood pressure at 3 mg/kg, po after 3 hrs. It counts as functional. More on the design: scale not given: the % may be the effect or the level left.
In series [23] the test system is Rattus norvegicus. The series is described as follows: Antihypertensive activity in spontaneously hypertensive rat model assessed as reduction in blood pressure at 1 mg/kg, po after 3 hrs. It counts as functional. Set-up: scale not given: the % may be the effect or the level left.
Series [24] has as its system Rattus norvegicus. The series is described as follows: Antipsychotic activity in rat assessed as reduction of methamphetamine-induced hyperactivity at 10 mg/kg, po administered prior to methamphetamine challenge relative to vehicle-treated control. The class given is functional. More on the design: scale not given: the % may be the effect or the level left.
Series [25] concerns Rattus norvegicus. The series is described as follows: Antianxiety activity in Long-Evans rat assessed as reduction in motor activity at 1 mg/kg, po after 2 hrs relative to vehicle-treated control. It counts as functional. More on the design: scale not given: the % may be the effect or the level left.
The subject of series [26] is Rattus norvegicus. The series is described as follows: Antihypertensive activity in spontaneously hypertensive rat model assessed as reduction in blood pressure at 1 mg/kg, po after 24 hrs. The class given is functional. Set-up: scale not given: the % may be the effect or the level left.
Series [27] has as its system Rattus norvegicus. The series is described as follows: Antidiarrheal activity in Charles River rat assessed as inhibition of castor oil-induced diarrhea by measuring protected animals at 0.05 mg/kg, po administered 1 hr prior to castor oil challenge measured after 1 hr relative to vehicle-treated control. It counts as functional.

In general, LD50 refers to the dose expected to kill half of the subjects tested. For orientation: inhibition in vivo means the change of the read-out against control, counted positive when it falls. In series [1], `CC(CCCc1ccc(F)cc1)c1cc(O)c2c(c1)OC(C)(C)C1=C2CCC1` (stereo not given) registered an LD50 of at least 1000 mg/kg. For the same compound, the Activity in the series on Rattus norvegicus [2] is 41%; in the series with Rattus norvegicus [4], 30%; in the series with Rattus norvegicus [5], 58%; in the series with Rattus norvegicus [6], 3%; in the series with Mus musculus [8], 47%. The compound also displayed an inhibition in vivo at 0.5 mg/kg in the series listed under Rattus norvegicus [3] of 20%. The minimal effective dose in the series on Canis familiaris and in the series with Rhesus monkey was 10 mg/kg each time. In addition, the inhibition in vivo at 40 mg/kg with Mus musculus [7] is 22%.
The term ED50 denotes the midpoint of the dose-response relation. On to `CC1CCC2=C(C1)c1c(O)cc(C(C)CCCc3ccccc3)cc1OC2(C)C` (stereo not given), for which the Time in the series on Felis catus [9] is on record as 28 min; with Felis catus [11], 2 min. In [1], the LD50 came to 750 mg/kg. For the same compound, the Activity amounted to 36% in the series with Rattus norvegicus [2]; 77% in the series on Rattus norvegicus [5]; 77% with Mus musculus [8]; 30 mg/kg in the series on Mus musculus [12]; 46% with Rattus norvegicus [13]. The minimal effective dose in the series with Canis familiaris was found to be 1 mg/kg; in the series on Rhesus monkey, 0.5 mg/kg. The ED50 with Mus musculus [10] stood at 17 mg/kg.
Regarding `CCCCCC(C)C(C)c1cc(O)c2c(c1)OC(C)(C)C1=C2CC(C)CC1` (stereo not given), the Time turned out to be 62 min in the series on Felis catus [9] and 122 min in the series with Felis catus [11]. Also, the Activity in the series with Rattus norvegicus [14] is 48%; with Rattus norvegicus [2], 96%; with Rattus norvegicus [15], 28%; with Mus musculus [17], 58%; in the series with Rattus norvegicus [5] it was 70%; in the series with Rattus norvegicus [19], 12%. For the same compound, the Activity in the series with Rattus norvegicus [21] came out at 19%; with Mus musculus [8] it was 92%; with Mus musculus [12], 10 mg/kg; with Rattus norvegicus [22], 37%. Also, the LD50 in series [1] is at least 1000 mg/kg. Further, the ED50 in the series on Rattus norvegicus [16] came out at 1.4 mg/kg; in the series with Mus musculus [10], 3 mg/kg. Moreover, the minimal effective dose with Canis familiaris was determined as 1 mg/kg; with Rhesus monkey it was 10 mg/kg. For the same compound, the inhibition in vivo at 0.1 mg/kg in the series with Rattus norvegicus [18] is 50%. For the same compound, in the series with Rattus norvegicus [20], the inhibition in vivo at 0.2 mg/kg is 80%.
Take `CC1CCC2=C(C1)c1c(O)cc(C(C)CCCCc3ccc(F)cc3)cc1OC2(C)C` (stereo not given): the Activity with Rattus norvegicus [23] was 7%; in the series with Rattus norvegicus [24], 71%; with Rattus norvegicus [2], 73%; in the series with Rattus norvegicus [15] it was 14%; with Mus musculus [17] it was 4%; in the series with Rattus norvegicus [5], 65%. In addition, the Activity in the series with Rattus norvegicus [25] is reported as 40%; in the series on Rattus norvegicus [26] it was 4%; in the series with Rattus norvegicus [22], 33%. In series [1], this compound showed an LD50 of 750 mg/kg. The compound further registered an inhibition in vivo at 0.5 mg/kg in the series filed under Rattus norvegicus [3] of 80%. In addition, in the series with Mus musculus [10], the ED50 was 20.5 mg/kg.
Consider `CCOC(=O)C1(c2ccccc2)CCN(CCC(C#N)(c2ccccc2)c2ccccc2)CC1` [DIPHENOXYLATE HYDROCHLORIDE], for which the inhibition in vivo at 0.1 mg/kg in the series with Rattus norvegicus [18] was 67%. Also, the inhibition in vivo at 0.2 mg/kg in the series on Rattus norvegicus [20] was found to be 95%. In addition, the inhibition in vivo at 0.05 mg/kg with Rattus norvegicus [27] was found to be 46%.

These data come from ChEMBL document CHEMBL3272295, “Drugs derived from cannabinoids. 5. delta6a,10a-Tetrahydrocannabinol and heterocyclic analogs containing aromatic side chains” (J Med Chem, 1976).
